Assay results reported in US20240115731A1, “METHOD OF DELIVERING MRNA IN VIVO” (PCI Biotech AS, priority 2021, published 2024).

How the values were obtained:
BL/6 mouse skin [1] = experiment: Intradermal naked mRNA delivery, IVIS bio-luminescence imaging of injection sites; type: in vivo, mice; conditions: Example 5: intradermal, 2 μg mRNA + 0.003 μg TPCS2a, blue light 30 seconds after administration
Method: (§1) • 1. 20-24 hours after light (or TPCS2a injection), mice were given an intraperitoneal injection of 3 mg D-Luciferin (200 μl of 15 mg/ml stock). • 2. After approximately 10 minutes the mice were anaesthetized by a subcutaneous injection of Zoletil (15 mg/kg xylasin, 7.5 mg/kg butorphanol, 9 mg/kg zolazepam, and 9 mg tiletamine) • 3. 20 minutes after D-luciferin (Caliper Life Sciences) injection, the mice were placed in the IVIS instrument (IVIS Spectrum, model 124375R from PerkinElmer, Andor camera IS0825R4582; iKon Living Image version: 4.5.2.18424. Binning factor: 8; Excitation filter: Block; Emission filter: Open; f Number: 1) and pictures were taken with automatic exposure of Luminescence. • 4. Bio-luminescence is expressed as “Total Flux” (photon/second)×10^5.
(§2) The materials and methods were as used in Example 1, except that the administration was intradermal and blue light was used (wavelength between 400 and 540 nm with a peak at around 435 nm from the LumiSource illumination device produced by PCI Biotech AS, with a 13 mW/cm^2 fluence rate—a 6 minute illumination delivers 4.7 J/cm^2). Luciferase activity was assessed as set out in Example 1 except that skin homogenates were used.
The materials and methods were as used in Example 2. Animals were injected at two sites (left or right). IVIS was examined as set out in Example 1. […]

[2] = tested on: thigh muscle of C57BL/6 mice; experiment: Intramuscular naked mRNA delivery, IVIS bio-luminescence imaging of injection sites; type: in vivo
Source text: (§3) Female mice of the strain C57BL/6 (Charles River) were used. Animal identification and conditions of housing, acclimatisation, environment, diet and water was in accordance with the current Standard Operating Procedures at the animal facilities at Oslo University Hospital—The Radium Hospital. Age and weight at start of dosing: 5-6 weeks, 18-20 g. The injection area was shaved before illumination.
(§4) Firefly luciferase mRNA (L-7202—with modified base 5-methoxyuridine (5 moU), and with the TriLink CleanCap™ modification as the capping structure, purchased from TriLink Biotechnologies, San Diego, USA) was used.
(§5) TPCS2a (Amphinex®, PCI Biotech AS, Norway) was used mixed in a volume of 20 μl PBS (e.g. using a 0.000015 μg/μl solution for a 0.0003 μg dose).
(§6) mRNA (in aqueous solution, 20 μl of 0.1 μg/μl from stock solution of 1 μg/μl) in the amounts indicated in the table below were injected into the thigh muscle of each animal, with or without TPCS2a in the amounts indicated.
(§7) […] Animals 7-12 were not illuminated. 20 hours after the injections the animals were analysed by IVIS and assayed for luciferase activity (Luciferase Assay System, Promega, Cat #E1500) in muscle homogenates.
as §1

BL/6 mice = experiment: Conclusions from Examples: fold increase (PCI/mRNA alone), IVIS and luciferase assay; type: in vivo; conditions: illumination 30 seconds after mRNA/photosensitiser injection
Method: Good correspondence between the IVIS and luciferase assay results was observed. The fold increase (PCI/mRNA alone) with illumination only 30 seconds after mRNA/photosensitiser injection is higher than has been achieved in earlier experiments in which illumination was conducted 60 minutes after injection (3-5 times improvement). The improvement relative to using no photosensitiser is in the order of 30 fold. Shorter contact times were also effective at very low photosensitiser dose allowing for reduced side effects in subjects.

[3] = tested on: thigh muscle of C57BL/6 mice; experiment: Intramuscular naked mRNA delivery, luciferase assay in muscle homogenates; type: in vivo
Source text: as §3, §4, §5, §6, §7
(§8) Muscle homogenates were prepared from frozen tissue samples using a Precelly homogenizer and lysis buffer with phosphatase and protease inhibitors (MSD, Cat. No. R60TX-2, R70AA-1). Protein analysis was performed using the DC Protein Assay (Biorad). Luciferase is expressed as relative units (RLU=relative luminescence units) per mass of protein in the samples.

BL/6 mouse skin [4] = experiment: Intradermal naked mRNA delivery, luciferase assay in skin homogenates; type: in vivo, mice
Method: as §8, §2
The materials and methods were as used in Example 2. Luciferase activity was assessed as set out in Example 1 except that skin homogenates were used.
The materials and methods were as used in Example 3 but with even lower doses. Luciferase activity was assessed as set out in Example 1 except that skin homogenates were used.

[5] = Example 6: intramuscular, 2 μg mRNA + 0.0003 or 0.0001 μg TPCS2a, blue light 30 seconds after injection

tetraphenyl chlorin disulfonate [TPCS2a]
increase of bio-luminescence of PCI sites vs control sites receiving mRNA only (BL/6 mouse skin [1]): around 7.2 fold
bio-luminescence of PCI sites vs control sites receiving mRNA only ([2]; Example 1: intramuscular, 2 μg mRNA + 0.0003 μg TPCS2a, red light 1 J/cm^2 5 minutes after injection): significantly stronger luminescence
bio-luminescence of PCI sites vs control sites receiving mRNA only [2, 5]: significantly stronger luminescence
bio-luminescence, effect of PCI at very low dose ([2]; Example 10: intramuscular, 2 μg mRNA + 0.000003 μg TPCS2a, red light 1 J/cm^2, 5 minute interval): An effect was observed
increase of bio-luminescence by PCI ([2]; Example 10: intramuscular, 2 μg mRNA + 0.0001 μg TPCS2a, red light 1 J/cm^2, 5 minute interval): 5 fold
increase of bio-luminescence by PCI ([2]; Example 10: intramuscular, 2 μg mRNA + 0.0003 μg TPCS2a, red light 1 J/cm^2, 5 minute interval): 7 fold
improvement of fold increase (PCI/mRNA alone) with illumination 30 seconds after injection over earlier experiments with illumination 60 minutes after injection (BL/6 mice): 3-5 times
improvement relative to using no photosensitiser (BL/6 mice): ~30 fold
mean fold of increase for the PCI treated sites vs mRNA only sites (luciferase assay) ([3]; Example 1: intramuscular, 2 μg mRNA + 0.0003 μg TPCS2a, red light 652 nm 1 J/cm^2 5 minutes after injection, 20 hours): 4.9 times
effectiveness of low photosensitiser dose (luminescence and luciferase activity) ([3]; Example 6: intramuscular, 2 μg mRNA + 0.0001 μg TPCS2a, blue light 30 seconds after injection): highly effective
luciferase activity of PCI sites vs control sites receiving mRNA only [3, 5]: significantly stronger
luciferase activity in muscle, effectiveness at lower dose ([3]; Example 7: intramuscular, 2 μg mRNA + 0.0003 μg TPCS2a, blue light 30 seconds after injection): effective
luciferase activity in muscle, effectiveness by photosensitiser dose ([3]; Example 8: intramuscular, 2 μg mRNA + 0.0003 μg TPCS2a (vs 0.003 and 0.1 μg), blue light 10 minutes after injection): more effective than the higher doses
increase by PCI (luciferase assay) ([3]; Example 9: intramuscular, 2 μg mRNA + 0.0001 μg TPCS2a, red light 0.3 to 3 J/cm^2, 5 minute interval): 8-9 fold
effect of PCI (luciferase assay), 10 minute interval ([3]; Example 9: intramuscular, 2 μg mRNA + 0.0001 μg TPCS2a, red light 0.3 to 3 J/cm^2, 10 minute interval): effective but not at the same levels as the 5 minute interval
enhancement of mRNA delivery (luciferase assay), longer contact times (BL/6 mouse skin [4]; Example 2: intradermal, 2 μg mRNA + 0.003 μg TPCS2a, blue light, 30 or 60 min contact time): much less effective
enhancement of mRNA delivery (luciferase assay) vs mRNA alone (BL/6 mouse skin [4]; Example 2: intradermal, 2 μg mRNA + 0.003 μg TPCS2a, blue light, 10 minute contact time): about 20 times
luciferase activity in skin, effectiveness by photosensitiser dose (BL/6 mouse skin [4]; Example 3: intradermal, 2 μg mRNA + 0.003 μg TPCS2a (vs 0.01 and 0.05 μg), blue light 30 seconds after injection): more effective than higher doses
luciferase activity in skin, effectiveness at lower dose (BL/6 mouse skin [4]; Example 4: intradermal, 2 μg mRNA + 0.0003 μg TPCS2a, blue light 30 seconds after injection): effective
